Read-outs that look alike come from different tables or passages of the source.
Tests used:
Rabbit = details: training and test set; cited from earlier work
rat = details: cited from earlier work
WA09 hES cells [1] = details: for Teratogenicity Potential (μM) Cell Viability: human, 72 h
[2] = summarized from TERIS and Briggs et al. 2011, cited from earlier work
[3] = therapeutic peak plasma in vivo concentration, human, cited from earlier work
Humans = details: cited from earlier work; for Humans (known human developmental toxicity): training and test set
Rodent = details: training and test set; cited from earlier work
WA09 hES cells [4] = test: Phase 2 targeted biomarker assay, ornithine/cystine ratio, 9-point dose response; details: for Teratogenicity Potential (μM) O/C Ratio: human, 72 h
Outline: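 WA09 hES cells (≤ passage 40), plated as single cells at 100,000/well on Matrigel in mTeSR1 with 10 μM Y27632, dosed 24 h later with nine 3-fold dilutions, 0.04–300 μM, 0.1% DMSO, for 72 h. Final-24 h spent medium, spiked with 13C6-arginine and filtered (<10 kDa), analysed by LC-HRMS; viability by CellTiter-Fluor.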

[5] = Solubility in DMSO for stock solutions
Experimental: Phase I hES Cell Compound Exposure. hES cells were treated with a test compound at a single concentration equivalent to the compound's published therapeutic Cmax. […] This was done to ensure that enough cells were present at the time of sample collection to provide a signal for LC-HRMS analysis. For test compound exposure, all compound stock solutions, with the exception of valproic acid, were made with DMSO (Sigma-Aldrich). […] Each 96-well plate included media controls with and without test compound, 0.1% DMSO solvent control cells and cells exposed to a single concentration of eight different test compounds (FIG. 1A). Media controls were included on each plate to assess the impact of test compound on the sample matrix. hES cells were exposed to the test compound for 72 hours, with media and test compound replacement every 24 hours. Cells were monitored throughout the treatment period to ensure that no differentiation was occurring. After 72 hours of treatment, the spent media from the final 24-hour treatment period was collected and added to acetonitrile (Sigma-Aldrich, final acetonitrile concentration 40%), to halt metabolic processes and precipitate proteins from solution. Individual wells from each 96-well plate were collected and analyzed as separate samples. These samples were then stored at −80° C. until prepared for LC-HRMS analysis. Cell viability was assessed using the CellTiter-Fluor Cell Viability Assay as per the manufacturer's instructions (Promega, Madison, Wis.). […]
Phase 2 hES Cell Compound Exposure. […] Cell viability was assessed using the CellTiter-Fluor Cell Viability Assay. A quality control step was included with criteria that the CV of the measured viability RFU of the DMSO control cells could not exceed 10% for a plate to undergo LC-HRMS analysis. […]

hES cells [6] = test: ADMA/cystine ratio simplified predictive model in hES cell spent media; assay type: cell-based, human; details: single dose per treatment; ratios less than 0.9 indicate teratogenicity
Outline: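 hES cell spent media were analysed for ADMA and cystine, each normalized to the DMSO reference, and their ratio formed. Each value is the median of independent blocks (6 reps each). A ratio cutoff of 0.9 classifies teratogens versus non-teratogens.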

hES cells [7] = test: devTOX computational model predictions (Version 2.0, Version 2.1) from hES cell metabolomics; assay type: cell-based, human; details: single dose per treatment (Dose column)
Excerpt: The selection process weighted the predictive capacity of a feature, overall intensity, and peak shape to identify very well behaved features/metabolites that could be measured by targeted LC-MS or even by other detection systems.
This simplified model is based on a ratio of the reference treatment (DMSO) normalized values of ADMA and cystine.

[8] = tested on: mouse embryonic stem cell; details: training and test set; weak/moderate and strong teratogens both labeled teratogen; cited from earlier work
zebrafish = details: training and test set; weak/moderate and strong teratogens both labeled teratogen; cited from earlier work
rat whole embryo = details: training and test set; weak/moderate and strong teratogens both labeled teratogen; cited from earlier work

Compound	Rabbit prediction (Rabbit)	Viability Prediction (WA09 hES cells [1])	Teratogenicity Potential (μM) Cell Viability (WA09 hES cells [1])	Preclinical in vivo and known human developmental effects ([2]; test set compounds)	Cmax ([3]; test set)	Humans (known human developmental toxicity) (Humans)	Rodent prediction (Rodent)	O/C Ratio Prediction (WA09 hES cells [4])	Targeted Biomarker Assay prediction (WA09 hES cells [4])	Teratogenicity Potential (μM) O/C Ratio (WA09 hES cells [4])	Model Predictions ADMA/Cystine (hES cells [6])	Cmax ([3]; training set)	Model Predictions Version 2.0 (hES cells [7])	Model Predictions Version 2.1 (hES cells [7])	mEST prediction [8]	ZET prediction (zebrafish)	other results
CS(=O)(=O)CCNCc1ccc(-c2ccc3ncnc(Nc4ccc(OCc5cccc(F)c5)c(Cl)c4)c3c2)o1 [Lapatinib]	TER	NON	20.8 µM	Skeletal, embryo toxicity^c	4.2 µM	TER	TER	NON	NON	29 µM	–	–	–	–	–	–	Exposure level causing rat pup mortality relative to human clinical exposure based on AUC (rat; given during organogenesis, Briggs et al. 2011): about 3.3 times
Nc1nc2ncc(CNc3ccc(C(=O)N[C@@H](CCC(=O)O)C(=O)O)cc3)nc2c(=O)[nH]1 [Folic Acid]	–	NON	>300 µM	–	–	NON	–	–	NON	–	Non	0.035 µM	Ter	Non	–	–	Solubility in DMSO (words) [5]: completely insoluble in DMSO
CC[C@H](C)C(=O)O[C@H]1C[C@@H](C)C=C2C=C[C@H](C)[C@H](CC[C@@H]3C[C@@H](O)CC(=O)O3)[C@H]21 [Lovastatin]	NON	NON	4.1 µM	Skeletal, embryo toxicity^c	0.02 µM	TER	TER	NON	NON	1.3 µM	–	–	–	–	TER^m	TER^d	Cmax (rat; in vivo, 100 mg/kg/day): ~1.5 µM; lowest observed adverse effect level (LOAEL) (rat; in vivo): 100 mg/kg body weight per day
CCCC(CCC)C(=O)O [Valproic Acid]	TER^u	NON	1113.7 µM	–	–	TER	TER	TER	TER	90.8 µM	Ter	1000 µM	Ter	Ter	TER^b,i	TER^e,n	Solubility in DMSO (words) ([5]; at the stock concentrations used in this study, listed as Valproic acid): insoluble in DMSO; Solubility in DMSO (words) ([5]; at the stock concentrations used in this study, listed as valproic acid): completely insoluble in DMSO; Preclinical in vivo and known human developmental effects ([2]; training set compounds): Central nervous system,; Known Effect (Humans; validation and test set treatments of Example 2): Ter; Change in the o/c ratio, also relative to cytotoxicity (WA09 hES cells [4]): marked change in the o/c ratio at exposure levels well before cytotoxicity is observed; WEC prediction (rat whole embryo): TER^f,j

Source: patent US10209240B2, “Predicting human developmental toxicity of pharmaceuticals using human stem-like cells and metabolomic ratios” (STEMINA BIOMARKER DISCOVERY, INC., priority 2012, dated 2019)
